Data taken from patent US6124269A, “2-Halo-6-O-substituted ketolide derivatives” (priority 1998, dated 2000).
In brackets after ≈: the same amount, converted by molar mass.

Assays:
Format in all cases: cell-based
[1] = system: Candida albicans CCH 442; experiment: In vitro agar dilution MIC, organism code TT; conditions: Table 1B, unit assumed
Description: (§1) Representative compounds of the present invention were assayed in vitro for antibacterial activity as follows: Twelve petri dishes containing successive aqueous dilutions of the test compound mixed with 10 mL of sterilized Brain Heart Infusion (BHI) agar (Difco 0418-01-5) were prepared. Each plate was inoculated with 1:100 (or 1:10 for slow-growing strains, such as Micrococcus and Streptococcus) dilutions of up to 32 different microorganisms, using a Steers replicator block. The inoculated plates were incubated at 35-37° C. for 20 to 24 hours. In addition, a control plate, using BHI agar containing no test compound, was prepared and incubated at the beginning and end of each test.
(§2) An additional plate containing a compound having known susceptibility patterns for the organisms being tested and belonging to the same antibiotic class as the test compound was also prepared and incubated as a further control, as well as to provide test-to-test comparability.
(§3) After incubation, each plate was visually inspected. The minimum inhibitory concentration (MIC) was defined as the lowest concentration of drug yielding no growth, a slight haze, or sparsely isolated colonies on the inoculum spot as compared to the growth control.

[2] = system: Micrococcus luteus ATCC 4698; experiment: In vitro agar dilution MIC, organism code PP; conditions: Table 1B, in µg/mL (unit assumed)
Description: as §1, §2, §3

[3] = system: Streptococcus pyogenes 930; experiment: In vitro agar dilution MIC, organism code MM; conditions: unit assumed
Description: as §1, §2, §3

[4] = system: Streptococcus pneumoniae 5979; experiment: In vitro agar dilution MIC, organism code ZZ; conditions: unit assumed
Description: as §1, §2, §3

[5] = system: Escherichia coli SS; experiment: In vitro agar dilution MIC, organism code RR; conditions: Table 1B, in µg/mL (unit assumed)
Description: as §1, §2, §3

[6] = system: Streptococcus pneumoniae ATCC 6303; experiment: In vitro agar dilution MIC, organism code XX; conditions: unit assumed
Description: as §1, §2, §3

[7] = system: Streptococcus pyogenes EES61; experiment: In vitro agar dilution MIC, organism code LL; conditions: unit assumed
Description: as §1, §2, §3

[8] = system: Micrococcus luteus ATCC 9341; experiment: In vitro agar dilution MIC, organism code OO; conditions: Table 1B, unit assumed
Description: as §1, §2, §3

[9] = system: Staphylococcus aureus ATCC 6538P; experiment: In vitro agar dilution MIC, organism code AA; conditions: Table 1B, unit assumed
Description: as §1, §2, §3

[10] = system: Streptococcus agalactiae CMX 508; experiment: In vitro agar dilution MIC, organism code KK; conditions: Table 1B, unit assumed
Description: as §1, §2, §3

[11] = system: Streptococcus pyogenes PIU 2548; experiment: In vitro agar dilution MIC, organism code NN; conditions: unit assumed
Description: as §1, §2, §3

[12] = system: Mycobacterium smegmatis ATCC 114; experiment: In vitro agar dilution MIC, organism code UU; conditions: Table 1B, in µg/mL (unit assumed)
Description: as §1, §2, §3

[13] = system: Staphylococcus aureus A5177; experiment: In vitro agar dilution MIC, organism code BB; conditions: Table 1B, in µg/mL (unit assumed)
Description: as §1, §2, §3

[14] = system: Streptococcus pneumoniae 5649; experiment: In vitro agar dilution MIC, organism code ZZA; conditions: unit assumed
Description: as §1, §2, §3

[15] = system: Escherichia coli DC-2; experiment: In vitro agar dilution MIC, organism code SS; conditions: Table 1B, unit assumed
Description: as §1, §2, §3

[16] = system: Nocardia asteroides ATCC 9970; experiment: In vitro agar dilution MIC, organism code VV; conditions: Table 1B, in µg/mL (unit assumed)
Description: as §1
An additional plate containing a compound having known susceptibility patterns for the organisms being tested and belonging to the same antibiotic class as the test compound was also prepared and incubated as a further control, as well as to provide test-to-test comparability. Erythromycin A was used for this purpose.
as §3

[17] = system: Streptococcus bovis A-5169; experiment: In vitro agar dilution MIC, organism code JJ; conditions: Table 1B, unit assumed
Description: as §1, §2, §3

[18] = system: Staphylococcus aureus CMX 553; experiment: In vitro agar dilution MIC, organism code FF; conditions: Table 1B, unit assumed
Description: as §1, §2, §3

[19] = system: Escherichia coli JUHL; experiment: In vitro agar dilution MIC, organism code QQ; conditions: Table 1B, in µg/mL (unit assumed)
Description: as §1, §2, §3

[20] = system: Staphylococcus aureus CMX 642A; experiment: In vitro agar dilution MIC, organism code DD; conditions: Table 1B, unit assumed
Description: as §1, §2, §3

[21] = system: Enterococcus faecium ATCC 8043; experiment: In vitro agar dilution MIC, organism code II; conditions: Table 1B, unit assumed
Description: as §1, §2, §3

[22] = system: Streptococcus pneumoniae GYR 1171; experiment: In vitro agar dilution MIC, organism code YY; conditions: Table 1B, unit assumed
Description: as §1, §2, §3

[23] = system: Staphylococcus aureus 1775; experiment: In vitro agar dilution MIC, organism code GG; conditions: Table 1B, unit assumed
Description: as §1, §2, §3

[24] = system: Haemophilis influenzae DILL AMP R; experiment: In vitro agar dilution MIC, organism code WW; conditions: unit assumed
Description: as §1, §2, §3

[25] = system: Staphylococcus aureus NCTC10649M; experiment: In vitro agar dilution MIC, organism code EE; conditions: Table 1B, unit assumed
Description: as §1, §2, §3

[26] = system: Staphylococcus aureus A-5278; experiment: In vitro agar dilution MIC, organism code CC; conditions: Table 1B, unit assumed
Description: as §1, §2, §3

[27] = system: Staphylococcus epidermidis 3519; experiment: In vitro agar dilution MIC, organism code HH; conditions: Table 1B, in µg/mL (unit assumed)
Description: as §1, §2, §3

Row | SMILES | MIC [1] [µg/mL] | MIC [2] | MIC ([3]; Table 1B) [µg/mL] | MIC ([4]; Table 1B) [µg/mL] | MIC [5] | MIC ([6]; Table 1B) [µg/mL] | MIC ([7]; Table 1B) [µg/mL] | MIC [8] [µg/mL] | MIC [9] [µg/mL] | MIC [10] [µg/mL] | MIC ([11]; Table 1B) [µg/mL] | MIC [12] | MIC [13] | MIC ([14]; Table 1B) [µg/mL] | MIC [15] [µg/mL] | MIC [16] | MIC [17] [µg/mL] | MIC [18] [µg/mL] | MIC [19] | MIC [20] [µg/mL] | also measured
1 | C=CCO[C@]1(C)C[C@@H](C)C(=O)[C@H](C)[C@H]2NC(=O)O[C@]2(C)[C@@H](CC)OC(=O)[C@@](C)(F)C(=O)[C@H](C)[C@H]1O[C@@H]1O[C@H](C)C[C@H](N(C)C)[C@H]1O [Example 4] | > 100 | 0.78 | > 100 | > 128 | 0.78 | 0.06 (≈ 0.0914 µM) | 0.2 (≈ 0.305 µM) | 0.39 (≈ 0.594 µM) | 0.78 (≈ 1.19 µM) | 0.2 (≈ 0.305 µM) | 0.39 (≈ 0.594 µM) | 6.2 | 0.78 | 0.25 (≈ 0.381 µM) | > 100 | 0.39 | 0.2 (≈ 0.305 µM) | 0.78 (≈ 1.19 µM) | > 100 | 0.78 (≈ 1.19 µM) | MIC [21]: 0.2 µg/mL (≈ 0.305 µM); MIC [22]: 0.03 µg/mL (≈ 0.0457 µM); MIC [23]: > 100 µg/mL; MIC ([24]; Table 1B): 8 µg/mL (≈ 12.2 µM); MIC [25]: 0.78 µg/mL (≈ 1.19 µM); MIC [26]: > 100 µg/mL; MIC [27]: 0.78
2 | CC[C@H]1OC(=O)[C@@](C)(F)C(=O)[C@H](C)[C@@H](O[C@@H]2O[C@H](C)C[C@H](N(C)C)[C@H]2O)[C@](C)(OC/C=C/c2cnc3ccccc3c2)C[C@@H](C)C(=O)[C@H](C)[C@H]2NC(=O)O[C@@]21C [Example 5] | 12.5 (≈ 15.9 µM) | 0.1 | 0.2 (≈ 0.255 µM) | 1 (≈ 1.28 µM) | 0.2 | 0.03 (≈ 0.0383 µM) | 0.01 (≈ 0.0128 µM) | 0.01 (≈ 0.0128 µM) | 0.05 (≈ 0.0638 µM) | 0.01 (≈ 0.0128 µM) | 0.05 (≈ 0.0638 µM) | 0.2 | 0.05 | 0.25 (≈ 0.319 µM) | 25 (≈ 31.9 µM) | 0.005 | 0.005 (≈ 0.00638 µM) | 0.05 (≈ 0.0638 µM) | 25 | 0.05 (≈ 0.0638 µM) | MIC ([3]; Table 1D): 0.25 µg/mL (≈ 0.319 µM); MIC ([4]; Table 1D): 1 µg/mL (≈ 1.28 µM); MIC ([6]; Table 1D): 0.03 µg/mL (≈ 0.0383 µM); MIC ([7]; Table 1D): 0.03 µg/mL (≈ 0.0383 µM); MIC ([11]; Table 1D): 0.25 µg/mL (≈ 0.319 µM); MIC ([14]; Table 1D): 0.25 µg/mL (≈ 0.319 µM); MIC [21]: 0.02 µg/mL (≈ 0.0255 µM); MIC [22]: 0.03 µg/mL (≈ 0.0383 µM); MIC [23]: > 100 µg/mL; MIC ([24]; Table 1B): 1 µg/mL (≈ 1.28 µM); MIC ([24]; Table 1D): 1 µg/mL (≈ 1.28 µM); MIC [25]: 0.05 µg/mL (≈ 0.0638 µM); MIC [26]: > 100 µg/mL; MIC [27]: 0.05
3 | CC[C@H]1OC(=O)[C@@](C)(F)C(=O)[C@H](C)[C@@H](O[C@@H]2O[C@H](C)C[C@H](N(C)C)[C@H]2O)[C@](C)(OC/C=C/c2cnc3ccc([N+](=O)[O-])cc3c2)C[C@@H](C)C(=O)[C@H](C)[C@H]2NC(=O)O[C@@]21C [Example 6] | 100 (≈ 121 µM) | 0.05 | 0.39 (≈ 0.47 µM) | 1 (≈ 1.21 µM) | 0.05 | ≤ 0.004 | ≤ 0.005 | 0.01 (≈ 0.0121 µM) | 0.05 (≈ 0.0603 µM) | 0.02 (≈ 0.0241 µM) | 0.05 (≈ 0.0603 µM) | 0.1 | 0.05 | 0.125 (≈ 0.151 µM) | 25 (≈ 30.2 µM) | 0.02 | 0.01 (≈ 0.0121 µM) | 0.05 (≈ 0.0603 µM) | 25 | 0.05 (≈ 0.0603 µM) | MIC [21]: 0.05 µg/mL (≈ 0.0603 µM); MIC [22]: ≤ 0.004 µg/mL; MIC [23]: 100 µg/mL (≈ 121 µM); MIC ([24]; Table 1B): 2 µg/mL (≈ 2.41 µM); MIC [25]: 0.1 µg/mL (≈ 0.121 µM); MIC [26]: 100 µg/mL (≈ 121 µM); MIC [27]: 0.05
4 | CC[C@H]1OC(=O)[C@@](C)(F)C(=O)[C@H](C)[C@@H](O[C@@H]2O[C@H](C)C[C@H](N(C)C)[C@H]2O)[C@](C)(OC/C=C/c2ccccc2)C[C@@H](C)C(=O)[C@H](C)[C@H]2NC(=O)O[C@@]21C [Example 7] | > 100 | 0.02 | 25 (≈ 34.1 µM) | 64 (≈ 87.3 µM) | 0.1 | ≤ 0.004 | ≤ 0.005 | ≤ 0.005 | 0.05 (≈ 0.0682 µM) | ≤ 0.005 | 0.05 (≈ 0.0682 µM) | 0.05 | 0.05 | 0.25 (≈ 0.341 µM) | 25 (≈ 34.1 µM) | ≤ 0.005 | ≤ 0.005 | 0.05 (≈ 0.0682 µM) | 50 | 0.05 (≈ 0.0682 µM) | MIC ([3]; Table 1D): 16 µg/mL (≈ 21.8 µM); MIC ([4]; Table 1D): 64 µg/mL (≈ 87.3 µM); MIC ([6]; Table 1D): ≤ 0.04 µg/mL; MIC ([7]; Table 1D): ≤ 0.04 µg/mL; MIC ([11]; Table 1D): 0.25 µg/mL (≈ 0.341 µM); MIC ([14]; Table 1D): 0.25 µg/mL (≈ 0.341 µM); MIC [21]: 0.02 µg/mL (≈ 0.0273 µM); MIC [22]: ≤ 0.004 µg/mL; MIC [23]: 100 µg/mL (≈ 136 µM); MIC ([24]; Table 1B): 2 µg/mL (≈ 2.73 µM); MIC ([24]; Table 1D): 2 µg/mL (≈ 2.73 µM); MIC [25]: 0.05 µg/mL (≈ 0.0682 µM); MIC [26]: 100 µg/mL (≈ 136 µM); MIC [27]: 0.05
5 | CC[C@H]1OC(=O)[C@@](C)(F)C(=O)[C@H](C)[C@@H](O[C@@H]2O[C@H](C)C[C@H](N(C)C)[C@H]2O)[C@](C)(OC/C=C/c2cnc3ccc(NC(=O)OC(C)(C)C)cc3c2)C[C@@H](C)C(=O)[C@H](C)[C@H]2NC(=O)O[C@@]21C [Example 8] | > 100 | 0.39 | 12.5 (≈ 13.9 µM) | 16 (≈ 17.8 µM) | 6.2 | 0.06 (≈ 0.0667 µM) | 0.05 (≈ 0.0556 µM) | 0.05 (≈ 0.0556 µM) | 0.39 (≈ 0.434 µM) | 0.05 (≈ 0.0556 µM) | 0.39 (≈ 0.434 µM) | 0.78 | 0.39 | 1 (≈ 1.11 µM) | > 100 | 0.78 | 0.05 (≈ 0.0556 µM) | 0.39 (≈ 0.434 µM) | > 100 | 0.39 (≈ 0.434 µM) | MIC [21]: 0.2 µg/mL (≈ 0.222 µM); MIC [22]: 0.06 µg/mL (≈ 0.0667 µM); MIC [23]: > 100 µg/mL; MIC ([24]; Table 1B): 16 µg/mL (≈ 17.8 µM); MIC [25]: 0.39 µg/mL (≈ 0.434 µM); MIC [26]: > 100 µg/mL; MIC [27]: 0.39
